Measurements reported in ChEMBL document CHEMBL1201861, “Genomics of Drug Sensitity in Cancer screening data, Wellcome Trust Sanger Institute”.

Columns and labels:
Assay in all cases: cells
SK-UT-1 = type: functional, cell-based, Homo sapiens; conditions: Homo sapiens, SK-UT-1;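 further: growth inhibition of SK-UT-1 cells, measured by a cell viability assay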
Description: SANGER: Inhibition of human SK-UT-1 cell growth in a cell viability assay.

MEG-01 = type: functional, cell-based, Homo sapiens; conditions: Homo sapiens, MEG-01;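 further: growth inhibition of MEG-01 cells, read out by a cell viability assay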
Description: SANGER: Inhibition of human MEG-01 cell growth in a cell viability assay.

HAL-01 = type: functional, cell-based, Homo sapiens; conditions: Homo sapiens, HAL-01;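 further: growth inhibition of human HAL-01 cells, read out with a cell viability assay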
Description: SANGER: Inhibition of human HAL-01 cell growth in a cell viability assay.

L-363 = type: functional, cell-based, Homo sapiens; conditions: Homo sapiens, L-363
Description: SANGER: Inhibition of human L-363 cell growth in a cell viability assay.

ETK-1 = type: functional, cell-based, Homo sapiens; conditions: Homo sapiens, ETK-1;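 further: growth inhibition of human ETK-1 cells, read out with a cell viability assay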
Description: SANGER: Inhibition of human ETK-1 cell growth in a cell viability assay.

COR-L88 = type: functional, cell-based, Homo sapiens; conditions: Homo sapiens, COR-L88;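 further: growth inhibition of COR-L88 cells, read out with a cell viability assay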
Description: SANGER: Inhibition of human COR-L88 cell growth in a cell viability assay.

SK-NEP-1 = type: functional, cell-based, Homo sapiens; conditions: Homo sapiens, SK-NEP-1;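 further: growth inhibition of human SK-NEP-1 cells, read out by a cell viability assay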
Description: SANGER: Inhibition of human SK-NEP-1 cell growth in a cell viability assay.

LOX IMVI = type: functional, cell-based, Homo sapiens; conditions: Homo sapiens, LOX IMVI
Description: SANGER: Inhibition of human LOXIMVI cell growth in a cell viability assay.

A704 = type: functional, cell-based; conditions: Homo sapiens;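 further: growth inhibition of human A704 cells, read out with a cell viability assay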
Description: SANGER: Inhibition of human A704 cell growth in a cell viability assay.

OMC-1 = type: functional, cell-based, Homo sapiens; conditions: Homo sapiens, OMC-1;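 further: growth inhibition of the OMC-1 cell line, measured by a cell viability assay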
Description: SANGER: Inhibition of human OMC-1 cell growth in a cell viability assay.

RCC10RGB = type: functional, cell-based, Homo sapiens; conditions: Homo sapiens, RCC10RGB;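 further: growth inhibition of human RCC10RGB cells, read out by a cell viability assay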
Description: SANGER: Inhibition of human RCC10RGB cell growth in a cell viability assay.

JAR = type: functional, cell-based, Homo sapiens; conditions: Homo sapiens, JAR;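 further: growth inhibition of human JAR cells determined with a cell viability assay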
Description: SANGER: Inhibition of human JAR cell growth in a cell viability assay.

BT-474 = type: functional, cell-based, Homo sapiens; conditions: Homo sapiens, BT-474
Description: SANGER: Inhibition of human BT-474 cell growth in a cell viability assay.

U-87 MG = type: functional, cell-based, Homo sapiens, U-87MG ATCC; conditions: Homo sapiens, U-87 MG;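 further: growth inhibition of the cells measured with a viability assay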
Description: SANGER: Inhibition of human U-87-MG cell growth in a cell viability assay.

SCC-15 = type: functional, cell-based, Homo sapiens; conditions: Homo sapiens, SCC-15;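 further: growth inhibition of SCC-15 cells, read out with a cell viability assay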
Description: SANGER: Inhibition of human SCC-15 cell growth in a cell viability assay.

KP-N-YS = type: functional, cell-based, Homo sapiens; conditions: Homo sapiens, KP-N-YS;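 further: cell viability assay measuring inhibition of cell line growth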
Description: SANGER: Inhibition of human KP-N-YS cell growth in a cell viability assay.

DB = type: functional, cell-based, Homo sapiens; conditions: Homo sapiens, DB
Description: SANGER: Inhibition of human DB cell growth in a cell viability assay.

D-502MG = type: functional, cell-based, Homo sapiens; conditions: Homo sapiens, D-502MG
Description: SANGER: Inhibition of human D-502MG cell growth in a cell viability assay.

TE-6 = type: functional, cell-based, Homo sapiens; conditions: Homo sapiens, TE-6;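 further: growth inhibition of TE-6 cells, read out with a cell viability assay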
Description: SANGER: Inhibition of human TE-6 cell growth in a cell viability assay.

HT = type: functional, cell-based, Homo sapiens; conditions: Homo sapiens, HT
Description: SANGER: Inhibition of human HT cell growth in a cell viability assay.

ML-2 = type: functional, cell-based, Homo sapiens; conditions: Homo sapiens, ML-2;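 further: growth inhibition of ML-2 cells, measured with a cell viability readout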
Description: SANGER: Inhibition of human ML-2 cell growth in a cell viability assay.

BE-13 = type: functional, cell-based, Homo sapiens; conditions: Homo sapiens, BE-13;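 further: growth inhibition of human BE-13 cells, measured with a cell viability assay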
Description: SANGER: Inhibition of human BE-13 cell growth in a cell viability assay.

EW-13 = type: functional, cell-based, Homo sapiens; conditions: Homo sapiens, EW-13; read-out: IC50;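 further: growth inhibition of EW-13 cells, read out with a cell viability assay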
Description: SANGER: Inhibition of human EW-13 cell growth in a cell viability assay.

COLO-829 = type: functional, cell-based, Homo sapiens; conditions: Homo sapiens, COLO-829
Description: SANGER: Inhibition of human COLO-829 cell growth in a cell viability assay.

DMS-114 = type: functional, cell-based, Homo sapiens; conditions: Homo sapiens, DMS-114
BB65-RCC = type: functional, cell-based, Homo sapiens; conditions: Homo sapiens, BB65-RCC;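 further: growth inhibition of the cell line, measured with a cell viability assay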
Description: SANGER: Inhibition of human BB65-RCC cell growth in a cell viability assay.

DJM-1 = type: functional, cell-based, Homo sapiens; conditions: Homo sapiens, DJM-1;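 further: growth inhibition of human DJM-1 cells, read out by a cell viability assay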
Description: SANGER: Inhibition of human DJM-1 cell growth in a cell viability assay.

TE-1 = type: functional, cell-based, Homo sapiens; conditions: Homo sapiens, TE-1;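 further: growth inhibition of the human TE-1 cell line, read out with a cell viability assay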
Description: SANGER: Inhibition of human TE-1 cell growth in a cell viability assay.

GI-1 = type: functional, cell-based, Homo sapiens; conditions: Homo sapiens, GI-1;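 further: growth inhibition of human GI-1 cells, measured with a cell viability readout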
Description: SANGER: Inhibition of human GI-1 cell growth in a cell viability assay.

OCI-AML2 = type: functional, cell-based, Homo sapiens; conditions: Homo sapiens, OCI-AML2;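 further: growth inhibition of OCI-AML2 cells, read out with a cell viability assay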
Description: SANGER: Inhibition of human OCI-AML2 cell growth in a cell viability assay.

NCI-H1395 = type: functional, cell-based, Homo sapiens; conditions: Homo sapiens, NCI-H1395;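 further: cell viability assay read-out quantifying reduced proliferation of human NCI-H1395 cells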
Description: SANGER: Inhibition of human NCI-H1395 cell growth in a cell viability assay.

LAN-6 = type: functional, cell-based, Homo sapiens; conditions: Homo sapiens, LAN-6;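 further: growth inhibition of LAN-6 cells, determined with a cell viability assay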
Description: SANGER: Inhibition of human LAN-6 cell growth in a cell viability assay.

NCI-H720 = type: functional, cell-based, Homo sapiens; conditions: Homo sapiens, NCI-H720;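 further: growth inhibition of human NCI-H720 cells determined by a cell viability assay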
Description: SANGER: Inhibition of human NCI-H720 cell growth in a cell viability assay.

J-RT3-T3-5 = type: functional, cell-based, Homo sapiens; conditions: Homo sapiens, J-RT3-T3-5;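 further: cell viability assay measuring growth inhibition of human J-RT3-T3-5 cells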
Description: SANGER: Inhibition of human J-RT3-T3-5 cell growth in a cell viability assay.

no-11 = type: functional, cell-based, Homo sapiens; conditions: Homo sapiens;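 further: growth inhibition of human NO-11 cells, read out with a cell viability assay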
Description: SANGER: Inhibition of human no-11 cell growth in a cell viability assay.

MZ2-MEL = type: functional, cell-based, Homo sapiens; conditions: Homo sapiens, MZ2-MEL;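 further: growth inhibition of MZ2-MEL cells read out with a cell viability assay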
Description: SANGER: Inhibition of human MZ2-MEL cell growth in a cell viability assay.

MOLT-16 = type: functional, cell-based, Homo sapiens; conditions: Homo sapiens, MOLT-16;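 further: growth inhibition of human MOLT-16 cells, read out with a cell viability assay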
Description: SANGER: Inhibition of human MOLT-16 cell growth in a cell viability assay.

IST-SL1 = type: functional, cell-based, Homo sapiens; conditions: Homo sapiens, IST-SL1;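 further: growth inhibition of human IST-SL1 cells, read out with a cell viability assay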
Description: SANGER: Inhibition of human IST-SL1 cell growth in a cell viability assay.

LB771-HNC = type: functional, cell-based; conditions: Homo sapiens;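 further: growth inhibition of LB771-HNC human cells, read out with a cell viability assay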
Description: SANGER: Inhibition of human LB771-HNC cell growth in a cell viability assay.

SW872 = type: functional, cell-based, Homo sapiens; conditions: Homo sapiens, SW872;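 further: growth inhibition of SW872 cells, read out by a viability assay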
Description: SANGER: Inhibition of human SW872 cell growth in a cell viability assay.

SNU1 = type: functional, cell-based, Homo sapiens; conditions: Homo sapiens, SNU1;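 further: growth inhibition of human NCI-SNU-1 cells, measured with a cell viability assay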
Description: SANGER: Inhibition of human NCI-SNU-1 cell growth in a cell viability assay.

HCC2218 = type: functional, cell-based, Homo sapiens; conditions: Homo sapiens, HCC2218;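 further: cell viability assay read-out, with IC50 given as the concentration that inhibits growth of the cell line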
Description: SANGER: Inhibition of human HCC2218 cell growth in a cell viability assay.

KU812 cell line = type: functional, cell-based, Homo sapiens; conditions: Homo sapiens, KU812;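 further: growth inhibition of KU812 cells, read out with a cell viability assay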
Description: SANGER: Inhibition of human KU812 cell growth in a cell viability assay.

MV4-11 = type: functional, cell-based, Homo sapiens, MV-4-11; conditions: Homo sapiens, MV4-11;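 further: cell viability readout measuring growth inhibition of human MV-4-11 cells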
Description: SANGER: Inhibition of human MV-4-11 cell growth in a cell viability assay.

EW-3 = type: functional, cell-based, Homo sapiens; conditions: Homo sapiens, EW-3;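 further: cell viability assay read-out, IC50 reflects inhibition of growth of the EW-3 cells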
Description: SANGER: Inhibition of human EW-3 cell growth in a cell viability assay.

BV-173 = type: functional, cell-based, Homo sapiens; conditions: Homo sapiens, BV-173
Description: SANGER: Inhibition of human BV-173 cell growth in a cell viability assay.

NKM-1 = type: functional, cell-based, Homo sapiens; conditions: Homo sapiens, NKM-1;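 further: growth inhibition of NKM-1 cells, read out with a cell viability assay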
Description: SANGER: Inhibition of human NKM-1 cell growth in a cell viability assay.

MFM-223 = type: functional, cell-based, Homo sapiens; conditions: Homo sapiens, MFM-223
Description: SANGER: Inhibition of human MFM-223 cell growth in a cell viability assay.

KE-37 = type: functional, cell-based, Homo sapiens; conditions: Homo sapiens, KE-37;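 further: growth inhibition of KE-37 cells, read out with a cell viability assay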
Description: SANGER: Inhibition of human KE-37 cell growth in a cell viability assay.

Cc1ccc(-n2nc(C(C)(C)C)cc2NC(=O)Nc2ccc(OCCN3CCOCC3)c3ccccc23)cc1 [DORAMAPIMOD] showed an IC50 (SK-UT-1) of over 10000 nM, an IC50 (MEG-01) of over 10000 nM and an IC50 (HAL-01) of over 10000 nM. For the same compound, the IC50 (L-363) was over 10000 nM, the IC50 (ETK-1) was over 10000 nM and the IC50 (COR-L88) was over 10000 nM. For the same compound, the IC50 (SK-NEP-1) was over 10000 nM, the IC50 (LOX IMVI) was over 10000 nM and the IC50 (A704) was over 10000 nM. For the same compound, the IC50 (OMC-1) was over 10000 nM, the IC50 (RCC10RGB) was over 10000 nM and the IC50 (JAR) was over 10000 nM. It also gave an IC50 (BT-474) of over 10000 nM, an IC50 (U-87 MG) of over 10000 nM and an IC50 (SCC-15) of over 10000 nM. The IC50 (KP-N-YS) was over 10000 nM, the IC50 (DB) was over 10000 nM and the IC50 (D-502MG) was over 10000 nM. For the same compound, the IC50 (TE-6) was over 10000 nM, the IC50 (HT) was over 10000 nM and the IC50 (ML-2) was over 10000 nM. The IC50 (BE-13) was over 10000 nM, the IC50 (EW-13) was over 10000 nM and the IC50 (COLO-829) was over 10000 nM. The IC50 (DMS-114) was over 10000 nM, the IC50 (BB65-RCC) was over 10000 nM and the IC50 (DJM-1) was over 10000 nM. The IC50 (TE-1) was over 10000 nM, the IC50 (GI-1) was over 10000 nM and the IC50 (OCI-AML2) was over 10000 nM. It also gave an IC50 (NCI-H1395) of over 10000 nM, an IC50 (LAN-6) of over 10000 nM and an IC50 (NCI-H720) of over 10000 nM. For the same compound, the IC50 (J-RT3-T3-5) was over 10000 nM, the IC50 (no-11) was over 10000 nM and the IC50 (MZ2-MEL) was over 10000 nM. It also gave an IC50 (MOLT-16) of over 10000 nM, an IC50 (IST-SL1) of over 10000 nM and an IC50 (LB771-HNC) of over 10000 nM. For the same compound, the IC50 (SW872) was over 10000 nM, the IC50 (SNU1) was 9070 nM and the IC50 (HCC2218) was over 10000 nM. It also gave an IC50 (KU812 cell line) of over 10000 nM, an IC50 (MV4-11) of over 10000 nM and an IC50 (EW-3) of over 10000 nM. It also gave an IC50 (BV-173) of over 10000 nM, an IC50 (NKM-1) of over 10000 nM and an IC50 (MFM-223) of over 10000 nM. It also gave an IC50 (KE-37) of over 10000 nM.

Work on CN(NC(=O)CC(=O)NN(C)C(=S)c1ccccc1)C(=S)c1ccccc1 [ELESCLOMOL] yielded an IC50 (SK-UT-1) of 14.1 nM, an IC50 (MEG-01) of 105 nM and an IC50 (HAL-01) of 128 nM. For the same compound, the IC50 (L-363) was 12.3 nM, the IC50 (ETK-1) was 35 nM and the IC50 (COR-L88) was over 200 nM. For the same compound, the IC50 (SK-NEP-1) was 76.1 nM, the IC50 (LOX IMVI) was 171 nM and the IC50 (A704) was 27.5 nM. For the same compound, the IC50 (OMC-1) was 77.1 nM, the IC50 (RCC10RGB) was over 200 nM and the IC50 (JAR) was 5.97 nM. For the same compound, the IC50 (BT-474) was 19.2 nM, the IC50 (U-87 MG) was over 200 nM and the IC50 (SCC-15) was 25.6 nM. For the same compound, the IC50 (KP-N-YS) was 79.9 nM, the IC50 (DB) was 141 nM and the IC50 (D-502MG) was 25.8 nM. It also gave an IC50 (TE-6) of 139 nM, an IC50 (HT) of over 200 nM and an IC50 (ML-2) of over 200 nM. For the same compound, the IC50 (BE-13) was over 200 nM, the IC50 (EW-13) was 19.8 nM and the IC50 (COLO-829) was 43.1 nM. The IC50 (DMS-114) was 9.43 nM, the IC50 (BB65-RCC) was 24.2 nM and the IC50 (DJM-1) was 54.3 nM. For the same compound, the IC50 (TE-1) was 46 nM, the IC50 (GI-1) was 8.26 nM and the IC50 (OCI-AML2) was 136 nM. For the same compound, the IC50 (NCI-H1395) was 13.6 nM, the IC50 (LAN-6) was 54.6 nM and the IC50 (NCI-H720) was 124 nM. It also gave an IC50 (J-RT3-T3-5) of 14.4 nM, an IC50 (no-11) of 23.3 nM and an IC50 (MZ2-MEL) of over 200 nM. It also gave an IC50 (MOLT-16) of 4.53 nM, an IC50 (IST-SL1) of 52.3 nM and an IC50 (LB771-HNC) of over 200 nM. The IC50 (SW872) was over 200 nM, the IC50 (SNU1) was 4.86 nM and the IC50 (HCC2218) was over 200 nM. For the same compound, the IC50 (KU812 cell line) was over 200 nM, the IC50 (MV4-11) was 18 nM and the IC50 (EW-3) was 39.9 nM. The IC50 (BV-173) was 5.39 nM, the IC50 (NKM-1) was over 200 nM and the IC50 (MFM-223) was 45.2 nM. For the same compound, the IC50 (KE-37) was over 200 nM.
